Measurements reported in patent US20060276340A1, “HERBICIDE COMPOSITION COMPRISING PYRIBAMBENZ-PROPYL OR PYRIBAMBENZ-ISOPROPYL” (Zhejiang Chem-Tech Group Co., Ltd., priority 2003, published 2006).
Entries after “also recorded” stand apart in the source; their conditions may differ.

Tests used:
Type in all cases: in vivo
Alopecurus aequalis [1] = assay: greenhouse pot test, Tables 1-2
Experimental: (§1) The test soil is a formulated sandy loam soil. 9.5 centimeter diameter pots are used for herbicidal activity test.
(§2) The soil in the pot for the pre-emergence test was sprayed one day after planting. The preparation liquid for the treatment prepared by mixing individual single-herbicides was diluted with water to the desired dosage.
(§3) The pots for post-emergence treatment are placed into a greenhouse and incubated for 7 to 9 days, and then subjected to leave treatment by spraying. The preparation liquid for the treatment prepared by mixing individual single-herbicides was diluted with water to the desired dosage.
(§4) The treated pots stood for one day, then were placed in a greenhouse and watered regularly. The herbicidal activities of the compositions were evaluated by visual examination after incubating for 14 to 21 days.
(§5) The herbicidal activities of the compositions were evaluated by plant symptoms such as stunting, deformity, chlorosis, and whitening. 0 represents that the compositions have no herbicidal effect or have safety to crops. 100 represents that the weeds or crops were completely killed.

Beckmannia syzigachne [2] = assay: greenhouse pot test, Tables 1-2; details: BECSY 2 leaves
Experimental: as §1, §2, §3, §4, §5

Digitrria sanguinalis = assay: greenhouse pot test, Tables 1-2; details: DIGSA 3 leaves
Experimental: as §1, §2, §3, §4, §5

Poa annua [3] = assay: greenhouse pot test, Tables 1-2; details: POAAN 3 leaves
Experimental: as §1, §2, §3, §4, §5

Polypogon fugax [4] = assay: greenhouse pot test, Tables 1-2; details: POLFU 3-4 leaves
Experimental: as §1, §2, §3, §4, §5

Alopecurus aequalis [5] = assay: greenhouse pot test, pre-emergence treatment; details: ALOAE
Experimental: as §1, §2, §4, §5

Cerastium arvense [6] = assay: greenhouse pot test, pre-emergence treatment; details: CERAR
Experimental: as §1, §2, §4, §5

Galium aparine [7] = assay: greenhouse pot test, pre-emergence treatment; details: GALAP
Experimental: as §1, §2, §4, §5

Polypogon fugax [8] = assay: greenhouse pot test, pre-emergence treatment; details: POLFU
Experimental: as §1, §2, §4, §5

Alopercurus japonicus [9] = assay: greenhouse pot test, post-emergence treatment; details: ALOJA
Experimental: as §1, §3, §4, §5

Galium aparine [10] = assay: greenhouse pot test, post-emergence treatment; details: GALAP
Experimental: as §1, §3, §4, §5

Poa annua [11] = assay: greenhouse pot test, post-emergence treatment; details: POAAN
Experimental: as §1, §3, §4, §5

Veronica didyma = assay: greenhouse pot test, post-emergence treatment; details: VERDI
Experimental: as §1, §3, §4, §5

Alopercurus japonicus [12] = assay: greenhouse pot test, post-emergence early stage treatment; details: ALOJA
Experimental: as §1, §3, §4, §5

Beckmannia syzigachne [13] = assay: as above; details: BECSY 2˜3 leaves
Experimental: as §1, §3, §4, §5

Cerastium arvense [14] = assay: as above
Experimental: as §1, §3, §4, §5

Galium aparine [15] = assay: as above
Experimental: as §1, §3, §4, §5

Poa annua [16] = assay: as above
Experimental: as §1, §3, §4, §5

weeds in rape field = assay: weed control in rape field, descriptive statements
rape = assay: safety to crops
Experimental: The herbicidal activities of the compositions were evaluated by plant symptoms such as stunting, deformity, chlorosis, and whitening. 0 represents that the compositions have no herbicidal effect or have safety to crops. 100 represents that the weeds or crops were completely killed. [table]

CCCOC(=O)c1ccc(NCc2ccccc2Oc2nc(OC)cc(OC)n2)cc1 [Pyribambenz-propyl, propyl 4-({2-[(4,6-dimethoxypyrimidin-2-yl)oxy]benzyl}amino)benzoate]
visual evaluation of weed effects (Alopecurus aequalis [1]; ALOAE 0 leaf, 30 g/ha): 90% | visual evaluation of weed effects (Alopecurus aequalis [1]; ALOAE 0 leaf, 45 g/ha): 90% | visual evaluation of weed effects (Alopecurus aequalis [1]; ALOAE 3 leaves, 30 g/ha): 100% | visual evaluation of weed effects (Alopecurus aequalis [1]; ALOAE 3 leaves, 45 g/ha): 100% | visual evaluation of weed effects (Beckmannia syzigachne [2]; 30 g/ha): 0% | visual evaluation of weed effects (Beckmannia syzigachne [2]; 45 g/ha): 0% | visual evaluation of weed effects (Digitrria sanguinalis; 30 g/ha): 60% | visual evaluation of weed effects (Digitrria sanguinalis; 45 g/ha): 80% | visual evaluation of weed effects (Poa annua [3]; 30 g/ha): 20% | visual evaluation of weed effects (Poa annua [3]; 45 g/ha): 30% | visual evaluation of weed effects (Polypogon fugax [4]; 30 g/ha): 70% | visual evaluation of weed effects (Polypogon fugax [4]; 45 g/ha): 80% | visual evaluation of weed effects (Alopecurus aequalis [5]; 30 g/ha): 95% | visual evaluation of weed effects (Alopecurus aequalis [5]; 45 g/ha): 95% | visual evaluation of weed effects (Cerastium arvense [6]; 30 g/ha): 70% | visual evaluation of weed effects (Cerastium arvense [6]; 45 g/ha): 80% | visual evaluation of weed effects (Galium aparine [7]; 30 g/ha): 0% | visual evaluation of weed effects (Galium aparine [7]; 45 g/ha): 40% | visual evaluation of weed effects (Polypogon fugax [8]; 30 g/ha): 60% | visual evaluation of weed effects (Polypogon fugax [8]; 45 g/ha): 80% | visual evaluation of weed effects (Alopercurus japonicus [9]; 30 g/ha): 85% | visual evaluation of weed effects (Alopercurus japonicus [9]; 45 g/ha): 90% | visual evaluation of weed effects (Galium aparine [10]; 30 g/ha): 20% | visual evaluation of weed effects (Galium aparine [10]; 45 g/ha): 20% | visual evaluation of weed effects (Poa annua [11]; 30 g/ha): 85% | visual evaluation of weed effects (Poa annua [11]; 45 g/ha): 90% | visual evaluation of weed effects (Veronica didyma; 30 g/ha): 20% | visual evaluation of weed effects (Veronica didyma; 45 g/ha): 30% | visual evaluation of weed effects (Alopercurus japonicus [12]; 30 g/ha): 90% | visual evaluation of weed effects (Alopercurus japonicus [12]; 45 g/ha): 90% | visual evaluation of weed effects (Beckmannia syzigachne [13]; 30 g/ha): 50% | visual evaluation of weed effects (Beckmannia syzigachne [13]; 45 g/ha): 70% | visual evaluation of weed effects (Cerastium arvense [14]; CERAR 3˜4 leaves, 30 g/ha): 40% | visual evaluation of weed effects (Cerastium arvense [14]; CERAR 3˜4 leaves, 45 g/ha): 50% | visual evaluation of weed effects (Cerastium arvense [14]; CERAR, 30 g/ha): 80% | visual evaluation of weed effects (Cerastium arvense [14]; CERAR, 45 g/ha): 85% | visual evaluation of weed effects (Galium aparine [15]; GALAP 7˜8 leaves, 30 g/ha): 0% | visual evaluation of weed effects (Galium aparine [15]; GALAP 7˜8 leaves, 45 g/ha): 30% | visual evaluation of weed effects (Galium aparine [15]; GALAP, 30 g/ha): 20% | visual evaluation of weed effects (Galium aparine [15]; GALAP, 45 g/ha): 20% | visual evaluation of weed effects (Poa annua [16]; POAAN 2˜3 leaves, 30 g/ha): 85% | visual evaluation of weed effects (Poa annua [16]; POAAN 2˜3 leaves, 45 g/ha): 95% | visual evaluation of weed effects (Poa annua [16]; POAAN, 30 g/ha): 95% | visual evaluation of weed effects (Poa annua [16]; POAAN, 45 g/ha): 98% | weed control (weeds in rape field; Alopecurus aequalis, Alopecurus japonicus, Stellaria aquatica, Stallaria media and Atellaria alsine): high-effectively control; also recorded: effective weed control | effectiveness of control (weeds in rape field; second important weeds in rape field: Poa annua, sclerochloa kengiana, Beckmannia syzigachne, Polypogon fugax, broadleaf Cardlamine hirsuta, Galium aparine, Lapsana apogonoides, Hemistepta lyrata): moderate | selectivity between rape and weeds (rape; in vivo): good selectivity | safety to crops (rape; rape / objective crops): safety toward rape
